Data on 46 compounds can be found in patent US9951046B2, “TRPA1 modulators” (Algomedix, Inc., priority 2014, dated 2018).

The target of one assay is T1, human TRPA1 (Homo sapiens, UniProt O75762).
T1 construct: expressed in transfected cells
T1 sequence (O75762 whole entry): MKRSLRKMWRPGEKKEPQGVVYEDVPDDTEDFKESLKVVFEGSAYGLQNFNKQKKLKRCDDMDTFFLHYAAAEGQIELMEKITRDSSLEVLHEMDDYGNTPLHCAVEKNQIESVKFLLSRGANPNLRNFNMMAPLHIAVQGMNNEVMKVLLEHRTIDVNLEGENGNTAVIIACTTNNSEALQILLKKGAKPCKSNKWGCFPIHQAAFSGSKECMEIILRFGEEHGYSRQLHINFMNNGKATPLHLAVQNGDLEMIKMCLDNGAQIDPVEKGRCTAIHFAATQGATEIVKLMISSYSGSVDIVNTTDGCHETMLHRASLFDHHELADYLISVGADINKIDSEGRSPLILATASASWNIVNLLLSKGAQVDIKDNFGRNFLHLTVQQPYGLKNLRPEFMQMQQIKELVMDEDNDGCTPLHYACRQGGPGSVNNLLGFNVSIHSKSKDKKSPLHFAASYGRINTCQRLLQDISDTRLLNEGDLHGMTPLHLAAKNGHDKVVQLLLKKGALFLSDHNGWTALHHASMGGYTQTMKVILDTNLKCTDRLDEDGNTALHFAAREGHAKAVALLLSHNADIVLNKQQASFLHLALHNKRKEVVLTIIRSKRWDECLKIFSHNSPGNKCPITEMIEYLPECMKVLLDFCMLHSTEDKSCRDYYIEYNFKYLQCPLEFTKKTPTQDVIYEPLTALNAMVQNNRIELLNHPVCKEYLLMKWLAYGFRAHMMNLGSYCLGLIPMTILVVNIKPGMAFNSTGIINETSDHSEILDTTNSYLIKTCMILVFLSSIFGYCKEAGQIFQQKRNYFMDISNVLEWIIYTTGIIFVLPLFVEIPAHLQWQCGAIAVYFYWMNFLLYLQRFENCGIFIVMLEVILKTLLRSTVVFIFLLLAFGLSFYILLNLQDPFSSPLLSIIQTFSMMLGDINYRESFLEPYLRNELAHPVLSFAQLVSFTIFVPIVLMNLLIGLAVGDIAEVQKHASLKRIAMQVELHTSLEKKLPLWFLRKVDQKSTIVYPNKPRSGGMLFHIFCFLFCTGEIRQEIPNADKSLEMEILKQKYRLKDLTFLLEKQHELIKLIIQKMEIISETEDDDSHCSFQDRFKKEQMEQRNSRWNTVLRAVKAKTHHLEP
As to the kind of experiment: Cell-based functional intracellular calcium ([Ca2+]i) assay, Fluo-4/Fluo-8, FlexStation, challenge with reference TRPA1 agonist (FFA, AITC or 4-HNE).
Details: not given
Summed up: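 Doxycycline-induced (1 μg/ml) HEK293 expressing human TRPA1, with 5 μM ruthenium red during induction, loaded with Fluo-4 or Fluo-8 plus 2 mM probenecid; FlexStation read at 20-25° C, sometimes with 0.1% BSA.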
In general terms: Calcium assays in cells follow changes in intracellular calcium, usually with a dye or a luminescent sensor.
`N#Cc1ccc(-n2nc(C(=O)N3C4CCC3CC3(C4)C(=O)NCN3c3ccc(F)cc3)cc2-c2cccnc2)cc1F` (stereo not shown) [Compound 330]: the IC50 was 0.001 to 5 µM.

For `O=C(c1cc(-c2cccnc2)n(-c2ccc(F)c(C(F)(F)F)c2)n1)N1C2CCC1CC(n1c(=O)[nH]c3ccc(F)c(F)c31)C2` (stereo not shown) [Compound 331], the IC50 is 0.001 to 5 µM.

For the compound `O=C(c1cc(-c2cccnc2)n(-c2ccc(F)c(C(F)(F)F)c2)n1)N1C2CCC1CC1(C2)C(=O)NCN1c1ccc(F)cc1` (stereo not shown) [Compound 333], the IC50 fell in the range of 0.001 to 5 µM.

The same assay, now with this note: HEK293 cells expressing human TRPA1; IC50 class after addition of reference TRPA1 agonist (FFA, AITC or 4-HNE); read-out: human TRPA1-HEK Activity.
`Cc1c(C(=O)N2CCC3(CC2)C(=O)NCN3c2ccc(F)cc2)nn(-c2ccc(C(F)(F)F)c(F)c2)c1-c1cccnc1` [Compound 265]: the IC50 lay in the range of 0.001 to 5 µM.

As to `Cc1c(C(=O)N2CCC3(CC2)C(=O)NCN3c2ccc(F)cc2)nn(-c2cc(F)c(F)c(F)c2)c1-c1cccnc1` [Compound 266], the IC50 fell in the range of 0.001 to 5 µM.

For the compound `O=C1Nc2ccc(F)c(F)c2C2(CCN(C(=O)c3cc(-c4cccnc4)n(-c4ccc(F)c(C(F)(F)F)c4)n3)CC2)O1` [Compound 272], the IC50 was in the range of 0.001 to 5 µM.

Turning to `O=C1Nc2cc(F)c(F)cc2C2(CCN(C(=O)c3cc(-c4cccnc4)n(-c4ccc(F)c(C(F)(F)F)c4)n3)CC2)O1` [Compound 273], the IC50 is 0.001 to 5 µM.

On to `O=C1Nc2ccc(C(F)(F)F)cc2C2(CCN(C(=O)c3cc(-c4cccnc4)n(-c4ccc(F)c(C(F)(F)F)c4)n3)CC2)O1` [Compound 274], for which the IC50 fell in the range of 0.001 to 5 µM.

`O=C1Nc2cc(F)ccc2C2(CCN(C(=O)c3cc(-c4cccnc4)n(-c4ccc(F)c(C(F)(F)F)c4)n3)CC2)O1` [Compound 278]: the IC50 was 0.001 to 5 µM.

As for `O=C1Nc2ccc(Cl)cc2C2(CCN(C(=O)c3cc(-c4cccnc4)n(-c4ccc(F)c(C(F)(F)F)c4)n3)CC2)O1` [Compound 280], the IC50 fell in the range of 0.001 to 5 µM.

In the case of `O=C1Nc2ncccc2C2(CCN(C(=O)c3cc(-c4cccnc4)n(-c4ccc(F)c(C(F)(F)F)c4)n3)CC2)O1` [Compound 281], the IC50 was 0.001 to 5 µM.

For `O=C1Nc2ccc(F)cc2C2(CCN(C(=O)c3cc(-c4cccnc4)n(-c4ccc(F)c(C(F)(F)F)c4)n3)CC2)O1` [Compound 282], the IC50 fell in the range of 0.001 to 5 µM.

`O=C(c1cc(-c2cccnc2)n(-c2ccc(F)c(C(F)(F)F)c2)n1)N1CCC2(CC1)C(=O)NCN2c1ccc(OC(F)F)cc1` [Compound 283]: the IC50 lay within 5 to 25 µM.

Consider `N#Cc1ccc(-n2nc(C(=O)N3CCC(n4c(=O)[nH]c5ccc(F)c(F)c54)CC3)cc2-c2cccnc2)cc1C(F)(F)F` [Compound 284], for which the IC50 lay in the range of 0.001 to 5 µM.

As for `O=C(c1cc(-c2cccnc2)n(-c2ccc(C(F)(F)F)c(C(F)(F)F)c2)n1)N1CCC(n2c(=O)[nH]c3ccc(F)c(F)c32)CC1` [Compound 285], the IC50 fell in the range of 0.001 to 5 µM.

With `Cc1cc(-n2nc(C(=O)N3CCC(n4c(=O)[nH]c5ccc(F)c(F)c54)CC3)cc2-c2cccnc2)cc(C(F)(F)F)c1F` [Compound 286], the IC50 is 0.001 to 5 µM.

For the compound `O=C(c1cc(-c2cccnc2)n(-c2ccc(F)c(C(F)(F)F)c2)n1)N1CCC(N2Cc3c(F)cccc3NC2=O)CC1` [Compound 289], the IC50 lay within 0.001 to 5 µM.

Regarding `O=C(c1cc(-c2cccnc2)n(-c2ccc(F)c(C(F)(F)F)c2)n1)N1CCC(N2Cc3ccc(F)cc3NC2=O)CC1` [Compound 290], the IC50 was 0.001 to 5 µM.

On to `O=C(c1cc(-c2cccnc2)n(-c2ccc(F)c(C(F)(F)F)c2)n1)N1CCC(n2c(=S)[nH]c3ccc(F)c(F)c32)CC1` [Compound 291], for which the IC50 was in the range of 0.001 to 5 µM.

Regarding `CC1CC2(CCN1C(=O)c1cc(-c3cccnc3)n(-c3ccc(F)c(C(F)(F)F)c3)n1)OC(=O)Nc1ccc(C(F)(F)F)cc12` (stereo not shown) [Compound 292], the IC50 is 5 to 25 µM.

Take `CC1CC(n2c(=O)[nH]c3ccc(F)c(F)c32)CCN1C(=O)c1cc(-c2cccnc2)n(-c2ccc(F)c(C(F)(F)F)c2)n1` (stereo not shown) [Compound 293]: the IC50 is 0.001 to 5 µM.

`CC1CC(n2c(=S)[nH]c3ccc(F)c(F)c32)CCN1C(=O)c1cc(-c2cccnc2)n(-c2ccc(F)c(C(F)(F)F)c2)n1` (stereo not shown) [Compound 294]: the IC50 lay in the range of 0.001 to 5 µM.

For the compound `O=C(c1cc(-c2cccnc2)n(-c2ccc(Cl)c(C(F)(F)F)c2)n1)N1CCC(n2c(=O)[nH]c3ccc(F)c(F)c32)CC1` [Compound 295], the IC50 was 0.001 to 5 µM.

With `O=C(c1cc(-c2cccnc2)n(-c2ccc(Cl)c(C(F)(F)F)c2)n1)N1CCC2(CC1)C(=O)NCN2c1ccc(F)cc1` [Compound 296], the IC50 was 0.001 to 5 µM.

Regarding `O=C(c1cc(-c2cccnc2)n(-c2ccc(F)c(C(F)(F)F)c2)n1)N1CCC(n2c(=O)[nH]c3cc(F)c(F)c(F)c32)CC1` [Compound 297], the IC50 lay within 0.001 to 5 µM.

As to `O=C(c1cc(-c2cccnc2)n(-c2ccc(F)c(C(F)(F)F)c2)n1)N1CCC(n2c(=S)[nH]c3cc(F)c(F)c(F)c32)CC1` [Compound 298], the IC50 was in the range of 0.001 to 5 µM.

Consider `O=C(c1cc(-c2cnccn2)n(-c2ccc(F)c(C(F)(F)F)c2)n1)N1CCC(n2c(=O)[nH]c3ccc(F)c(F)c32)CC1` [Compound 305], for which the IC50 was 0.001 to 5 µM.

With `O=C(c1cc(-c2cnccn2)n(-c2ccc(F)c(C(F)(F)F)c2)n1)N1CCC2(CC1)C(=O)NCN2c1ccc(F)cc1` [Compound 306], the IC50 fell in the range of 0.001 to 5 µM.

Take `O=C(c1nn(-c2ccc(F)c(C(F)(F)F)c2)c2c1CCc1ncccc1-2)N1CCC2(CC1)C(=O)NCN2c1ccc(F)cc1` [Compound 313]: the IC50 was 0.001 to 5 µM.

For `O=C(c1nn(-c2ccc(F)c(C(F)(F)F)c2)c2c1CCc1ncccc1-2)N1CCC(n2c(=O)[nH]c3ccc(F)c(F)c32)CC1` [Compound 314], the IC50 was in the range of 0.001 to 5 µM.

On to `O=C(c1nn(-c2ccc(F)c(C(F)(F)F)c2)c2c1CCc1cccnc1-2)N1CCC2(CC1)C(=O)NCN2c1ccc(F)cc1` [Compound 315], for which the IC50 lay in the range of 0.001 to 5 µM.

Regarding `O=C(c1nn(-c2ccc(F)c(C(F)(F)F)c2)c2c1CCc1cccnc1-2)N1CCC(n2c(=O)[nH]c3ccc(F)c(F)c32)CC1` [Compound 316], the IC50 lay within 0.001 to 5 µM.

As for `O=C(c1cc(-c2cccnc2Cl)n(-c2ccc(C(F)(F)F)c(F)c2)n1)N1CCC2(CC1)C(=O)NCN2c1ccc(F)cc1` [Compound 317], the IC50 was 0.001 to 5 µM.

For the compound `O=C(c1cc(-c2cncc(F)c2)n(-c2ccc(C(F)(F)F)c(F)c2)n1)N1CCC2(CC1)C(=O)NCN2c1ccc(F)cc1` [Compound 318], the IC50 was 0.001 to 5 µM.

In the case of `O=C(c1cc(-c2cncc(F)c2)n(-c2ccc(C(F)(F)F)c(F)c2)n1)N1CCC(n2c(=O)[nH]c3ccc(F)c(F)c32)CC1` [Compound 319], the IC50 lay in the range of 0.001 to 5 µM.

Regarding `O=C(c1cc(-c2ccnnc2)n(-c2ccc(C(F)(F)F)c(F)c2)n1)N1CCC2(CC1)C(=O)NCN2c1ccc(F)cc1` [Compound 320, 8-(1-(3-fluoro-4-(trifluoromethyl)phenyl)-5-(pyridazin-4-yl)-1H-pyrazole-3-carbonyl)-1-(4-fluorophenyl)-1,3,8-triazaspiro [4.5]decan-4-one], the IC50 is 0.001 to 5 µM.

Turning to `O=C(c1cc(-c2ccnnc2)n(-c2cc(F)c(F)c(F)c2)n1)N1CCC(n2c(=O)[nH]c3ccc(F)c(F)c32)CC1` [Compound 321], the IC50 was 0.001 to 5 µM.

`O=C(c1cc(-c2cccnc2)n(-c2ccc(C(F)(F)F)cc2C(F)(F)F)n1)N1CCC2(CC1)C(=O)NCN2c1ccc(F)cc1` [Compound 322]: the IC50 was in the range of 0.001 to 5 µM.

On to `N#Cc1cc(C(F)(F)F)ccc1-n1nc(C(=O)N2CCC3(CC2)C(=O)NCN3c2ccc(F)cc2)cc1-c1cccnc1` [Compound 323], for which the IC50 fell in the range of 0.001 to 5 µM.

In the case of `N#Cc1ccc(-n2nc(C(=O)N3CCC4(CC3)C(=O)NCN4c3ccc(F)cc3)cc2-c2cccnc2)c(C(F)(F)F)c1` [Compound 324], the IC50 lay in the range of 0.001 to 5 µM.

For `N#Cc1ccc(-n2nc(C(=O)N3CCC(n4c(=O)[nH]c5ccc(F)c(F)c54)CC3)cc2-c2cccnc2)c(C(F)(F)F)c1` [Compound 325], the IC50 lay within 0.001 to 5 µM.

Regarding `O=C(c1cc(-c2cccnc2)n(-c2ccc(I)c(C(F)(F)F)c2)n1)N1CCC2(CC1)C(=O)NCN2c1ccc(F)cc1` [Compound 326], the IC50 fell in the range of 0.001 to 5 µM.

With `O=C(c1cc(-c2cccnc2)n(-c2ccc(I)c(C(F)(F)F)c2)n1)N1CCC(n2c(=O)[nH]c3ccc(F)c(F)c32)CC1` [Compound 327], the IC50 was in the range of 0.001 to 5 µM.

Take `N#Cc1ccc2[nH]c(=O)n(C3CCN(C(=O)c4cc(-c5cccnc5)n(-c5ccc(C#N)c(F)c5)n4)CC3)c2c1` [Compound 328]: the IC50 was 0.001 to 5 µM.

`Cc1cc(N2CNC(=O)C23CCN(C(=O)c2cc(-c4cccnc4)n(-c4ccc(C#N)c(F)c4)n2)CC3)cc(C)c1F` [Compound 329]: the IC50 was 0.001 to 5 µM.

For `O=C(c1cc(-c2cccnc2)n(-c2ccc(F)c(C(F)(F)F)c2)n1)N1CCC2(CC1)C(=O)NCN2c1cc(Cl)c(F)c(Cl)c1` [Compound 332], the IC50 lay in the range of 0.001 to 5 µM.
